In patent publication US10428101B2, “Preparation of glycosphingosines” (The Regents of the University of California, priority 2013, dated 2019):
Marks after values point to notes of the source that are not given here.

Tests used:
[1] = molecular target: Pasteurella multocida α2-3-sialyltransferase 1 E271F/R313Y mutant (PmST1 E271F/R313Y) (Pasteurella multocida, UniProt Q15KI8, E271F/R313Y); details: for Conversion (%): acceptor lactoside to Neu5Acα2-3 product, OPME sialylation pH 8.5, assayed at 4 h, TLC and ImageQuant 5.2
Source text: To test the suitability of lactoside 1 as an acceptor sugar, a one-pot two-enzyme system containing PmST1 E271F/R313Y and Neisseria meningitidis CMP-sialic acid synthetase (NmCSS) (Scheme 2) was used.
To increase the solubility of the fluorous-tagged lactosides and to examine how the length of the fluorous tags affects the efficiency of the enzymatic reactions, fluorous-tagged lactosides (2-4) (Scheme 1) containing a propylamide linker and different lengths of fluoroalkyl chains were synthesized and used as the acceptor sugars in a one-pot two-enzyme system containing NmCSS and PmST1 E271F/R313Y (Scheme 3).
The reactions were monitored by TLC (EtOAc:MeOH:H2O:AcOH=5:2:1:0.1).

[2] = Water solubility of fluorous-tagged lactoside; assay type: physicochemical; details: qualitative statement
[3] = molecular target: Photobacterium damselae α2-6-sialyltransferse (Pd2,6ST) (Photobacterium damselae, UniProt O66375); assay: One-pot two-enzyme α2-6-sialylation of fluorous-tagged lactoside acceptors (NmCSS + Pd2,6ST), conversion by TLC/ImageQuant; assay type: biochemical; details: acceptor lactoside to Neu5Acα2-6 product; OPME sialylation pH 8.5; assayed at 4 h; TLC and ImageQuant 5.2
Sequence of Photobacterium damselae α2-6-sialyltransferse (Pd2,6ST) (O66375 entry or part of it): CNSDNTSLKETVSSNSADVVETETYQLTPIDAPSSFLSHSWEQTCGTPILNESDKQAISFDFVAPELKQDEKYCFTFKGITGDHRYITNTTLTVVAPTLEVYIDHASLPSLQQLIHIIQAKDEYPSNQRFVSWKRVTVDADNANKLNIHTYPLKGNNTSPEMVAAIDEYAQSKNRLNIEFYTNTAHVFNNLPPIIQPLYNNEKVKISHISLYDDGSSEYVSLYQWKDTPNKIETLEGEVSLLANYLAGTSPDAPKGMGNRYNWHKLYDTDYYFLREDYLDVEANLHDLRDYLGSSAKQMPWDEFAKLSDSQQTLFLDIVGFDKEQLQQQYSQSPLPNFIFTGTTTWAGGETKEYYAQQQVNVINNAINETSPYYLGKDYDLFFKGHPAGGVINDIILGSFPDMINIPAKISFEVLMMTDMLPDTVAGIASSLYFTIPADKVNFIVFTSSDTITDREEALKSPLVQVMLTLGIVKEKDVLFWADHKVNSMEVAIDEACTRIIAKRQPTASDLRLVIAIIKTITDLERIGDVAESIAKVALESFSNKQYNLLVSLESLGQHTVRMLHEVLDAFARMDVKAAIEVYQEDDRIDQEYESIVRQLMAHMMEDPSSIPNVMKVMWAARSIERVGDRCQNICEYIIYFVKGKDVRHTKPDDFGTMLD
Protocol: B: One-pot two-enzyme sialylation reaction with Pd2,6ST.
Reaction conversion rates were determined by staining the TLC plates with p-anisaldehyde sugar stain and then using ImageQuant 5.2 software to compare the relative intensities between the glycosylation product spot and the lactoside acceptor spot of each reaction (FIG. 1). For external standard comparison, each lactoside acceptor spot was also compared with its corresponding standard 10 mM stock solution spot to verify the conversion rates of each reaction.
Pd2,6ST (0.72 μg) was added to a 0.5 mL centrifuge tube containing 0.01μmol (1 eq.) of a lactoside acceptor (chosen from 1-8), Neu5Ac (1.2 eq.), CTP (2 eq.), Tris-HCl buffer (100 mM, pH 8.5), MgCl2 (20 mM), NmCSS (0.08 μg), and water (total volume=10 μL). The reactions were monitored by TLC (EtOAc:MeOH:H2O:AcOH=5:2:1:0.1).

Sequence of Pasteurella multocida α2-3-sialyltransferase 1 E271F/R313Y mutant (PmST1 E271F/R313Y) (Q15KI8 26-412 E271F/R313Y): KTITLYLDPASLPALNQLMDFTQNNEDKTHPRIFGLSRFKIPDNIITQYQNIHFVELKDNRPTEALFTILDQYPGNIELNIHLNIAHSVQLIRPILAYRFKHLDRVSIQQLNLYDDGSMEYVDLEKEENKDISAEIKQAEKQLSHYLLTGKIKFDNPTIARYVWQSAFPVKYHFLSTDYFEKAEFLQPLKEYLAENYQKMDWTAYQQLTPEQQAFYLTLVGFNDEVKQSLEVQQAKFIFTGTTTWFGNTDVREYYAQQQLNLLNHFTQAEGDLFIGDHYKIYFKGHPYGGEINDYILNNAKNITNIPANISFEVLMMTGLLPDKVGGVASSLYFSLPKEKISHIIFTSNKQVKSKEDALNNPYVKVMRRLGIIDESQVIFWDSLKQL

Row | Substance | sialylated product detected (trace amount) ([1]; one-pot two-enzyme system PmST1 E271F/R313Y and NmCSS, by TLC and MALDI-TOF) | water solubility [2] | Conversion (%) [1] | Conversion (%) [3]
1 | LacβC8F17 [Compound 1] | < 10% | low |  | 
2 | LacβProNH-TEG-C6F13 [Compound 7] |  |  | 70 ± 4.8^[b] % | 65 ± 7.9^[b] %
3 | LacβProNH-TEG-C8F17 [Compound 5] |  |  | 65 ± 11^[b] % | 47 ± 10^[b] %
4 | LacβProNH-HEG-C6F13 [Compound 8] |  |  | 80 ± 15^[b] % | 66 ± 25^[b] %
5 | LacβProNH-HEG-C8F17 [Compound 6] |  |  | 55 ± 7.8^[b] % | 52 ± 5.6^[b] %
6 | LacβProNH—C6F13 [Compound 3] |  |  | 92 ± 5.5^[b] % | 94 ± 6.0^[b] %
7 | LacβProNH-C8F17 [Compound 2] |  |  | 22 ± 12^[b] % | 31 ± 18^[b] %
8 | LacβProNH—C3F7 [Compound 4] |  |  | 89 ± 9.8^[b] % | qt.^[b]
